This is an account of results in article PMC7515946, “Targeting of Perforin Inhibitor into the Brain Parenchyma Via a Prodrug Approach Can Decrease Oxidative Stress and Neuroinflammation and Improve Cell Survival” (Molecular Neurobiology, 2020).

A word on the IC50: it is the concentration that gives 50% inhibition.

Non-standard residues stand in square brackets, D forms with d. No end group written: not given here. Sta = CC(C)C[C@H](N)[C@@H](O)CC(=O)O

Experiment [1] has as its system MCF-7 human breast adenocarcinoma cells. The experiment can be described thus: Cell viability of MCF-7 cells with cisplatin co-treatment (resazurin). To be noted: 100 μM, 72 h incubation. It is filed as cell-based. (In general: Alamar Blue is a resazurin reagent that responds to reducing activity.)
Experiment [2] relates to prostaglandin E2 (PGE2) production. The experiment can be described thus: Brain PGE2 production in LPS-induced mice. The format is in vivo, mouse. To be noted: LPS 250 μg/kg per day for 3 days; control 5.72 ± 1.83. How it is done:
Adult male C57BL/6JOlaHsd mice (Jackson Laboratories, Bar Harbor, ME, USA) were supplied by Envigo (Venray, Netherlands). Mice were housed in stainless steel cages on a 12-h light (07:00–19:00) and 12-h dark (19:00–07:00) cycle at an ambient temperature of 22 ± 1 °C with a relative humidity of 50–60%. All experiments were carried out during the light phase. Tap water and food pellets (Lactamin R36; Lactamin AB, Södertälje, Sweden) were available ad libitum. Neuroinflammation was induced by the treatment with LPS 250 μg/kg i.p once per day for 3 consequent days followed by decapitation on the 4th day. […]
The effects of the studied compounds to inhibit PGE2 production in the mouse brain were evaluated after LPS-induction as curative and preventative treatments. […] The data were acquired using the Agilent MassHunter Workstation software (version B.06.00) and processed with the Quantitative Analysis (B.07.00) software. The lower limit of quantification (LLOQ) for PGE2 was 1 nM.

In experiment [3] the test system is caspase-3/-7. The experiment can be described thus: Caspase-3/-7 in brain of LPS-induced neuroinflammation mice. The format is in vivo, mouse. The settings on record: LPS 250 μg/kg i.p. for 3 days, relative to control. How it is done: Adult male C57BL/6JOlaHsd mice (Jackson Laboratories, Bar Harbor, ME, USA) were supplied by Envigo (Venray, Netherlands). Mice were housed in stainless steel cages on a 12-h light (07:00–19:00) and 12-h dark (19:00–07:00) cycle at an ambient temperature of 22 ± 1 °C with a relative humidity of 50–60%. All experiments were carried out during the light phase. Tap water and food pellets (Lactamin R36; Lactamin AB, Södertälje, Sweden) were available ad libitum. Neuroinflammation was induced by the treatment with LPS 250 μg/kg i.p once per day for 3 consequent days followed by decapitation on the 4th day. The animals were allocated to one of four treatment groups (n = 6 per group): (1) LPS-treated mice, (2) mice treated with LPS and the studied compound (30 μmol/kg; i.v.) for 3 days and 120 min before the decapitation on the 4th day (preventative efficacy), (3) mice treated with LPS for 3 days and with the studied compound (30 μmol/kg; i.v.) only for the last 2 days, and (4) control mice treated with 0.9% NaCl solution i.p. once per day for 3 days. After decapitation, mouse blood and brain samples were collected. […] The plasma layer was centrifuged again at 12,000 × g to remove the platelets. Plasma was stored at − 80 °C until analysis. The brains were snap-frozen in liquid nitrogen and stored at − 80 °C until analysis.
The effects of the compounds on the enzyme activity of caspase-3 and caspase-7 were evaluated from the snap-frozen mouse brain. Pieces of tissues (n = 3) were homogenized in 50 mM Tris–HCl (pH 7.4) 1:10 (w/v) with a bead mill homogenizer. […] The enzyme activity was measured with an Apo-ONE Homogenous Caspase-3/7 Assay kit (Promega Corporation, Madison, WI, USA) according to the manufacturer’s instruction. The assay was performed on 96-well plates, each sample having 3 replicates. Each of the sample wells contained 100 μL of the previously collected supernatant and 100 μL of the prepared Apo-ONE reagent. The blank measurement was carried out with the homogenization buffer and Apo-ONE reagent. Once all the samples and reagents were pipetted in the wells, the plate was carefully shaken for 30 s and left for incubation in dark at room temperature. The fluorescence was measured after the incubation with an EnVision 2104 Multilabel Reader (PerkinElmer, Waltham, MA, USA), with λex 499 nm and λem 521 nm. The measurement was repeated on multiple time points between 0.5 and 24 h.

Experiment [4] has as its target T1, purified human β-site amyloid precursor protein (APP) cleaving enzyme 1 (BACE1) (Homo sapiens, UniProt P56817).
T1 construct: purchased AnaSpec, Inc. (Fremont, CA, USA), SensoLyte 520 BACE1 Assay kit
As to the kind of experiment: BACE1 FRET inhibition assay. It is filed as biochemical. To be noted: 0.25 μM, 30 min. From the text:
A fluorometric assay was used to screen the inhibitory effect of the studied compounds on purified human β-site amyloid precursor protein (APP) cleaving enzyme 1 (BACE1) using a fluorescence resonance energy transfer (FRET) peptide technique (SensoLyte© 520 BACE1 Assay kit, AnaSpec, Inc., Fremont, CA, USA) according to the manufacturer’s protocol. […] The sequence of the FRET peptide has been derived from the β-secretase cleavage site of β-amyloid precursor protein (APP) with Swedish mutation, which enhances β-secretase to process APP resulting in an early onset of AD. Thus, active β-secretase cleaved the FRET substrate into two separate fragments resulting in the release of HiLyte™ Fluor 488 fluorescence that was measured by the Envision plate reader (EnVision, Perkin Elmer, Waltham, MA, USA) at λex 490 nm and λem 520 nm.

In experiment [5] the target is T2, LAT1 (Mus musculus, UniProt Q9Z127).
T2 construct: endogenous in cells; host or cells: mouse primary astrocytes (C57BL/6JOlaHsd), cortex and hippocampi
As to the kind of experiment: Ability to bind to LAT1: inhibition of [14C]-L-leucine uptake in astrocytes. The format is cell-based. The settings on record: mouse primary astrocytes, 0.76 μM [14C]-L-leucine, 5 min, 37 °C. How it is done: For the transporter-binding studies, the astrocytes were seeded on 24-well plates with a density of 10 × 10^4 cells/well 3 days before the experiments. After removal of the culture medium, the cells were carefully washed with pre-warmed HBSS (Hank’s balanced salt solution) containing choline chloride (125 mM), KCl (4.8 mM), MgSO4 (1.2 mM), KH2PO4 (1.2 mM), CaCl2 (1.3 mM), glucose (5.6 mM), and HEPES (25 mM) adjusted to pH 7.4 with 1 M NaOH. The cells were pre-incubated with 500 μL of pre-warmed HBSS at 37 °C for 5 min before the experiments. To study the ability of studied compounds to inhibit the uptake of a known LAT1 substrate, the cells were incubated at 37 °C for 5 min with an uptake buffer (HBSS, 250 μL) containing 0.76 μM (0.25 mCi/mL or […]) of [^14C]-L-leucine (PerkinElmer, Waltham, MA, USA) and 0.1–1000 μM of studied compound (or HBSS as blank). After incubation, the uptake was stopped by adding 500 μL of ice-cold HBSS, and the cells were washed two times with ice-cold HBSS (2 × 500 μL). The cells were then lysed with 500 μL of NaOH (0.1 M) for 60 min and the lysate was mixed with 3.5 mL of Emulsifier-Safe cocktail (Ultima Gold, PerkinElmer, Waltham, MA, USA). The radioactivity in the cells was measured by liquid scintillation counting (MicroBeta^2 counter, PerkinElmer Waltham, MA, USA). Half of the maximum inhibitory concentration (IC50) values were calculated by nonlinear regression analysis (fitting the curve to log (concentration) vs. remaining normalized viability).

T2 sequence (Q9Z127 whole entry): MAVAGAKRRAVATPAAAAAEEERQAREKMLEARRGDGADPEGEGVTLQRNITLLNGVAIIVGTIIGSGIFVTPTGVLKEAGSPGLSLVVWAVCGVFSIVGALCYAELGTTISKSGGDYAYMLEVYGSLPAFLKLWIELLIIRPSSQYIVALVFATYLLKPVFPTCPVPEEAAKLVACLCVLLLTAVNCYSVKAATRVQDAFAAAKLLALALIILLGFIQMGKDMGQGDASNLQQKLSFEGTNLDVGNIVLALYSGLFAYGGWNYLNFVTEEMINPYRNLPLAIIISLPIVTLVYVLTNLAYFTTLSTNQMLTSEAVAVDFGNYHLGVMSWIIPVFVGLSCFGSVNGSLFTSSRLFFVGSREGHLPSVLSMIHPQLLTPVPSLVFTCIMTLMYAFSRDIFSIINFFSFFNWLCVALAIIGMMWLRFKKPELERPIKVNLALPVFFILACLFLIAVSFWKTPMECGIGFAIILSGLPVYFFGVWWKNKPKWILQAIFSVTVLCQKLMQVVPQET
T2 sequence (P10852 whole entry partner): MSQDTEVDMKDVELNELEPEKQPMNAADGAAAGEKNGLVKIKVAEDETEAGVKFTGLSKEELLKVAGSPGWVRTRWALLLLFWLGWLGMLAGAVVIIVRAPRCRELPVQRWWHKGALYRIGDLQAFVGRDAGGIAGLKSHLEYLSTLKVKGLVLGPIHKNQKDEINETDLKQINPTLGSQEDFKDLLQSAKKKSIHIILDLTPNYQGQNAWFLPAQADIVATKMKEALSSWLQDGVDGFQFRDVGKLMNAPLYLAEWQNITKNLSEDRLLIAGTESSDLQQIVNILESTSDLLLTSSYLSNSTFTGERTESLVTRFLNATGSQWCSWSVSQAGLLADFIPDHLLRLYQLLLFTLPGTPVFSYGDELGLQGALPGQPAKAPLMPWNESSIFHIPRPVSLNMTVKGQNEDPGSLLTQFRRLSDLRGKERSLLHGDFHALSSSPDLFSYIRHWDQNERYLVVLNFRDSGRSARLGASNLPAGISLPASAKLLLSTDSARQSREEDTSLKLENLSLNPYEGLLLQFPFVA
T1 sequence (P56817 22-501 limits assumed): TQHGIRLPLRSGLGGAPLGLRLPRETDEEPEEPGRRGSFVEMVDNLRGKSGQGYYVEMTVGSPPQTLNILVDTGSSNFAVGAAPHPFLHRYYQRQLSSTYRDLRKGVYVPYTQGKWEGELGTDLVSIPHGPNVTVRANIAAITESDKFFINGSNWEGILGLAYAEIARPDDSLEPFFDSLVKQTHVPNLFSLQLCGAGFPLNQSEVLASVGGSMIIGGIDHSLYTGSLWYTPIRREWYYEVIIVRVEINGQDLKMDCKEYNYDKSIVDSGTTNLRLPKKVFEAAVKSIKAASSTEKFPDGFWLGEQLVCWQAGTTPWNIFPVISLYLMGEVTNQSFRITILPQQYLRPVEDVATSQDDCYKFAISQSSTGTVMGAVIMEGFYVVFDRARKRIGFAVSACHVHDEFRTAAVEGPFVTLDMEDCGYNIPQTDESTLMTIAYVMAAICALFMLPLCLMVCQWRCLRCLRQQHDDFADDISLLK

Take `N.N.[Cl][Pt][Cl]` [cisplatin, reference compound]: in experiment [1], the “Inhibition of MCF-7 cell growth” value is on record as 51%.

lipopolysaccharide [LPS]: in experiment [2], the “Brain PGE2 production, LPS alone” value is 16.56 ± 2.45 nmol of PGE2/mg tissue. Besides, the “Brain caspase-3/-7 levels, LPS alone” value in experiment [3] is listed as 137%.

As to “KTEEISEVN-Sta-VAEF-NH2 (KTEEISEVN[Sta]VAEF-NH2; N-terminus assumed; SMILES CC[C@H](C)[C@H](NC(=O)[C@H](CCC(=O)O)NC(=O)[C@H](CCC(=O)O)NC(=O)[C@@H](NC(=O)[C@@H](N)CCCCN)[C@@H](C)O)C(=O)N[C@@H](CO)C(=O)N[C@@H](CCC(=O)O)C(=O)N[C@H](C(=O)N[C@@H](CC(N)=O)C(=O)N[C@@H](CC(C)C)[C@@H](O)CC(=O)N[C@H](C(=O)N[C@@H](C)C(=O)N[C@@H](CCC(=O)O)C(=O)N[C@@H](Cc1ccccc1)C(N)=O)C(C)C)C(C)C) [BACE1 inhibitor, reference compound]”, the “Inhibition of BACE1 activity” value in experiment [4] was “ca. 86%”.

Take `CNC(=O)COc1ccc(-c2c(C#N)c(NC(=O)c3cccc(C[C@H](N)C(=O)O)c3)n3c(nc4ccccc43)c2C#N)cc1` [LAT1 inhibitor, KMH-233, reference compound]: the figures for the IC50 in experiment [5] and in experiment [5] (listed as LAT1-inhibitor) were 14.4 ± 1.2 µM and 14 µM, respectively.
